Test results as given in patent US6680332B1, “Substituted 5-oxo-5,6,7,8-tetrahydro-4H-1-benzopyrans and benzothiopyrans and the use thereof as potentiators of AMPA” (Euro-Celtique S.A., priority 1999, dated 2004).
“And” between values parts separate entries of the source, which are not always exact repeats. Equal values may be shown once.

What was measured:
AMPA receptors = assay: Electrophysiology: potentiation of AMPA-evoked membrane currents in Xenopus oocytes injected with rat cortical poly(A)+ RNA (two-electrode voltage clamp); assay type: cell-based; details: 10 μM AMPA; for AMPA positive potentiation 2-fold @ μM (concentration required for 2-fold potentiation of the AMPA response): rat cortical poly(A)+ RNA, holding potential -70 mV
Description: FIG. 1 depicts a graph showing the concentration-effect relationship for the potentiation of AMPA-evoked currents in Xenopus oocytes by the compound of Example 4. Xenopus oocytes were injected with rat cortical poly (A+) RNA and membrane currents were measured by a standard, two-microelectrode voltage clamp method. A solution of AMPA (10 μM) was superfused through the recording chamber in the absence (control) or presence of increasing concentrations of the compound of Example 4. “I” is membrane current.
The novel compounds of the invention were assessed by electrophysiological assays in Xenopus oocytes expressing rat […] poly(A)^+ RNA (see Keana et al, J. Med. Chem. 38:4367-4379 (1995)) or in cultured rat cortical neurons (see Woodward et al., Mol. Pharmacol. 47:568-581 (1995)) for AMPA receptor activity. The compounds that potentiate currents across the oocyte membrane are expected to be useful as cognitive enhancers or for the treatment of schizophrenia, myoclonus or neurodegenerative diseases such as Parkinson's disease and Alzheimer's disease. Thus, the present invention is directed to compounds that are positive modulators of AMPA receptors.
Total RNA was prepared from rat cerebral cortex by homogenization in urea/LiCl followed by phenol/chloroform extraction. Polyadenylated (poly A^+) mRNA was isolated from total cellular RNA by oligo-dT cellulose chromatography. Xenopus oocytes were prepared by the method of Woodward et al. (Mol. Pharmacol. 41, 89-103 (1992)). Oocytes were microinjected with approximately 50 ng of cortical poly(A)^+ RNA and stored in Barth's medium (containing in mM: NaCl, 88; KCl, 1; CaCl2, 0.41; Ca(NO3)2, 0.33; MgSO4, 0.82; NaHCO3, 2.4; HEPES 5; pH 7.4, with 0.1 mg/ml gentamycin sulphate) for 6 days prior to recording. Membrane current responses were recorded in frog Ringer solution containing (in mM): NaCl, 115; KCl, 2; CaCl2, 1.8; HEPES, 5; pH 7.4, or in a nominally Ca^2+-free Ringer solution containing (in mM): NaCl, 115; KCl, 2; BaCl2, 1.8; HEPES, 5; pH 7.4. Electrical recordings were made using a conventional two-electrode voltage clamp (Dagan TEV-200). The oocyte was placed in a 5 ml chamber lined with nylon mesh, impaled with two micro-electrodes and voltage-clamped at a holding potential of −70 mV. A scaled up linear array system (Benveniste and Mayer, J. Physiol. 464, 131-163 (1993)) was used to superfuse the oocyte in Ringer solution and to apply drugs and wash solutions. A control concentration (10 μM) of AMPA was applied to the oocyte to determine a baseline membrane current response. The modulation of this response by AMPA potentiators was measured by applying increasing concentrations of the potentiator in Ringer solution for ˜30 s followed by coapplication of the potentiator with 10 μM AMPA. The resulting membrane current responses were analyzed by sigmoidal curve fitting (Origin, Microcal Software, Inc.).

EC50 (AMPA receptors; sigmoidal curve fitting, read-out: half-maximally effective concentration for potentiation of the AMPA response) [µM] | melting point [°C] | Compound | AMPA positive potentiation 2-fold @ μM (concentration required for 2-fold potentiation of the AMPA response) (AMPA receptors) | maximal potentiation of the AMPA response (AMPA receptors; at 100 μM compound) [fold]
 | 222 to 224 | CC1(C)CC(=O)C2=C(C1)OC(N)=C(C#N)C2c1ccncc1 (stereo not drawn) [Example 13, 2-Amino-3-cyano-7,7-dimethyl-4-(4-pyridyl)-5-oxo-5,6,7,8-tetrahydro-4H-1-benzopyran] | 60.0 µM | 
 | 227 to 230 | CC1(C)CC(=O)C2=C(C1)OC(N)=C(C#N)C2c1ccc(C#N)cc1 (stereo not drawn) [Example 16, 2-Amino-3-cyano-4-(4-cyanophenyl)-7,7-dimethyl-5-oxo-5,6,7,8-tetrahydro-4H-1-benzopyran] | 20.0 µM | 
 | 189 to 193 | CC1(C)CC(=O)C2=C(C1)OC(N)=C(C#N)C2c1ccc(F)cc1 (stereo not drawn) [Example 17, 2-Amino-3-cyano-7,7-dimethyl-4-(4-fluorophenyl)-5-oxo-5,6,7,8-tetrahydro-4H-1-benzopyran] | 27.0 µM | 
 | 259 to 262 | CC1(C)CC(=O)C2=C(C1)OC(N)=C(C#N)C2c1ccc2ccccc2c1 (stereo not drawn) [Example 18, 2-Amino-3-cyano-7,7-dimethyl-4-(2-naphthyl)-5-oxo-5,6,7,8-tetrahydro-4H-1-benzopyran] | 1.6 µM | 

The next lines start with the compound.

Compound | EC50 (AMPA receptors; sigmoidal curve fitting, read-out: half-maximally effective concentration for potentiation of the AMPA response) [µM] | melting point [°C] | AMPA positive potentiation 2-fold @ μM (concentration required for 2-fold potentiation of the AMPA response) (AMPA receptors) | maximal potentiation of the AMPA response (AMPA receptors; at 100 μM compound) [fold]
2-Amino-3-cyano-7,7-dimethyl-4-(3,4-difluoromethylenedioxyphenyl)-5-oxo-5,6,7,8-tetrahydro-4H-1-benzopyran [Example 15] |  |  | 18.0 µM | 
COc1ccc(C2C(C#N)=C(N)OC3=C2C(=O)CC(C)(C)C3)cc1 (stereo not drawn) [Example 1, 2-Amino-3-cyano-7,7-dimethyl-4-(4-methoxyphenyl)-5-oxo-5,6,7,8-tetrahydro-4H-1-benzopyran] |  |  | 7.0 µM | 
Cc1cc(C)c(C2C(C#N)=C(N)OC3=C2C(=O)CC(C)(C)C3)c(C)c1 (stereo not drawn) [Example 2, 2-Amino-3-cyano-7,7-dimethyl-4-(2,4,6-trimethylphenyl)-5-oxo-5,6,7,8-tetrahydro-4H-1-benzopyran] |  |  | 4.0 µM | 
CC1(C)CC(=O)C2=C(C1)OC(N)=C(C#N)C2c1ccccc1 (stereo not drawn) [Example 3, 2-Amino-3-cyano-7,7-dimethyl-4-phenyl-5-oxo-5,6,7,8-tetrahydro-4H-1-benzopyran] |  |  | 12.0 µM | 
CC1(C)CC(=O)C2=C(C1)OC(N)=C(C#N)C2c1ccc2c(c1)OCO2 (stereo not drawn) [Example 4, 2-Amino-3-cyano7,7-dimethyl-4-(3,4-methylenedioxyphenyl)-5-oxo-5,6,7,8-tetrahydro-4H-1-benzopyran] | 16.6 |  | 4 µM and 4.0 µM | 11
COc1ccc(C2C(C#N)=C(N)OC3=C2C(=O)CCC3)cc1 (stereo not drawn) [Example 5, 2-Amino-3-cyano-4-(4-methoxyphenyl)-5-oxo-5,6,7,8-tetrahydro-4H-1-benzopyran] |  | 209 to 212 | 35.0 µM | 
CC1(C)CC(=O)C2=C(C1)OC(N)=C(C#N)C2c1ccc(Cl)cc1 (stereo not drawn) [Example 6, 2-Amino-3-cyano-4-(4chlorophenyl)-7,7-dimethyl-5-oxo-5,6,7,8-tetrahydro-4N-1-benzopyran] |  |  | 18.0 µM | 
CC1(C)CC(=O)C2=C(C1)OC(N)=C(C#N)C2c1cccc(O)c1 (stereo not drawn) [Example 7, 2-Amino-3-cyano-7,7-dimethyl-4-(3-hydroxyphenyl)-5-oxo-5,6,7,8-tetrahydro-4H-1-benzopyran] |  | 214 to 217 | 12.0 µM | 
Cc1ccc(C2C(C#N)=C(N)OC3=C2C(=O)CC(C)(C)C3)cc1 (stereo not drawn) [Example 8, 2-Amino-3-cyano-7,7-dimethyl-4-(4-methylphenyl)-5-oxo-5,6,7,8-tetrahydro-4H-1-benzopyran] |  |  | 12.0 µM | 
CN(C)c1ccc(C2C(C#N)=C(N)OC3=C2C(=O)CC(C)(C)C3)cc1 (stereo not drawn) [Example 9, 2-Amino-3-cyano-7,7-dimethyl-4-(4-dimethylaminophenyl)-5-oxo-5,6,7,8-tetrahydro-4H-1-benzopyran] |  | 221 to 224 | 12.0 µM | 
CC1(C)CC(=O)C2=C(C1)OC(N)=C(C#N)C2c1ccc(O)cc1 (stereo not drawn) [Example 10, 2-Amino-3-cyano-7,7-dimethyl-4-(4-hydroxyphenyl)-5-oxo-5,6,7,8-tetrakydro-4H-1-benzopyran] |  |  | 14.0 µM | 
COc1cccc(C2C(C#N)=C(N)OC3=C2C(=O)CC(C)(C)C3)c1 (stereo not drawn) [Example 11, 2-Amino-3-cyano-7,7-dimethyl-4-(3-methzoxyphenyl)-5-oxo-5,6,7,8-tetrahydro-4H-1-benzopyran] |  |  | 6.0 µM | 
CC1(C)CC(=O)C2=C(C1)OC(N)=C(C#N)C2c1ccc([N+](=O)[O-])cc1 (stereo not drawn) [Example 12, 2-Amino-3-cyano-7,7-dimethyl-4-(4-nitrophenyl)-5-oxo-5,6,7,8-tetrakydro-4H-1-benzopyran] |  |  | 60.0 µM | 
COc1cc(C2C(C#N)=C(N)OC3=C2C(=O)CC(C)(C)C3)cc2c1OCO2 (stereo not drawn) [Example 14, 2-Amino-3-cyano-7,7-dimethyl-4-(3-methoxy-4,5-methylenedioxyphenyl)-5-oxo-5,6,7,8-tetrahydro-4H-1-benzopyran] |  |  | 12.0 µM | 
